Reference: PubChem BioAssay (NCI)
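The compound was tested at five concentrations on cells cultured in 96-well plates, with a 48-hour exposure period. GI50: concentration for 50% inhibition of growth. TGI is the concentration that stops growth completely.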

Columns and labels:
Assay in all cases: NCI tumour cell line growth inhibition, 48 h
[1] = test system: SK-OV-3 ovarian
[2] = test system: MDA-MB-468 breast
[3] = test system: RPMI-8226 leukemia
[4] = test system: 786-0 renal
[5] = test system: HCT-15 colon
[6] = test system: LOX IMVI melanoma
[7] = test system: HCC-2998 colon
[8] = test system: MOLT-4 leukemia
[9] = test system: DU-145 prostate
[10] = test system: HCT-116 colon
[11] = test system: SF-295 CNS
[12] = test system: OVCAR-3 ovarian
[13] = test system: IGROV1 ovarian
[14] = test system: CAKI-1 renal
[15] = test system: KM12 colon
[16] = test system: MCF7 breast
[17] = test system: SR leukemia
[18] = test system: MALME-3M melanoma
[19] = test system: SK-MEL-28 melanoma
[20] = test system: ACHN renal
[21] = test system: UACC-62 melanoma
[22] = test system: SW-620 colon
[23] = test system: M14 melanoma
[24] = test system: NCI/ADR-RES ovarian
[25] = test system: UO-31 renal
[26] = test system: A498 renal
[27] = test system: SF-539 CNS
[28] = test system: NCI-H226 lung
[29] = test system: OVCAR-5 ovarian
[30] = test system: HOP-92 NSCLC
[31] = test system: SNB-75 CNS
[32] = test system: SF-268 CNS
[33] = test system: SN12C renal
[34] = test system: SK-MEL-5 melanoma
[35] = test system: SNB-19 CNS
[36] = test system: OVCAR-4 ovarian
[37] = test system: RXF 393 renal
[38] = test system: MDA-MB-231 breast
[39] = test system: NCI-H23 lung
[40] = test system: HS 578T breast
[41] = test system: EKVX NSCLC
[42] = test system: UACC-257 melanoma
[43] = test system: SK-MEL-2 melanoma
[44] = test system: K-562 leukemia
[45] = test system: NCI-H460 lung
[46] = test system: MDA-MB-435
[47] = test system: TK-10 renal
[48] = test system: U251 CNS
[49] = test system: BT-549 breast

CC1(C)CC[C@]23CC[C@]4(C)[C@H](CC[C@@H]5[C@@]6(C)CC[C@H](N)C(C)(C)[C@@H]6CC[C@]54C)[C@H]2[C@H]1OC3=O
GI50 [1]: 12100 nM
TGI [1]: 37300 nM
GI50 [2]: 1690 nM
TGI [2]: 3180 nM
GI50 [3]: 2100 nM
TGI [3]: 5260 nM
GI50 [4]: 1450 nM
TGI [4]: 2920 nM
GI50 [5]: 1640 nM
TGI [5]: 3070 nM
GI50 [6]: 1680 nM
TGI [6]: 3050 nM
GI50 [7]: 1610 nM
TGI [7]: 3020 nM
GI50 [8]: 1850 nM
TGI [8]: 4380 nM
GI50 [9]: 1810 nM
TGI [9]: 3310 nM
GI50 [10]: 1600 nM
TGI [10]: 3050 nM
GI50 [11]: 1760 nM
TGI [11]: 3220 nM
GI50 [12]: 1660 nM
TGI [12]: 3100 nM
GI50 [13]: 1680 nM
TGI [13]: 3100 nM
GI50 [14]: 1570 nM
TGI [14]: 2980 nM
GI50 [15]: 1820 nM
TGI [15]: 3410 nM
GI50 [16]: 1570 nM
TGI [16]: 3220 nM
GI50 [17]: 1590 nM
TGI [17]: 5080 nM
GI50 [18]: 1670 nM
TGI [18]: 3060 nM
GI50 [19]: 1780 nM
TGI [19]: 3180 nM
GI50 [20]: 1680 nM
TGI [20]: 3050 nM
GI50 [21]: 1730 nM
TGI [21]: 3190 nM
GI50 [22]: 1440 nM
TGI [22]: 2860 nM
GI50 [23]: 1810 nM
TGI [23]: 3340 nM
GI50 [24]: 1800 nM
TGI [24]: 3610 nM
GI50 [25]: 1510 nM
TGI [25]: 2870 nM
GI50 [26]: 1480 nM
TGI [26]: 3440 nM
GI50 [27]: 1680 nM
TGI [27]: 3050 nM
GI50 [28]: 2150 nM
TGI [28]: 5470 nM
GI50 [29]: 1650 nM
TGI [29]: 3020 nM
GI50 [30]: 1590 nM
TGI [30]: 3150 nM
GI50 [31]: 1360 nM
TGI [31]: 2860 nM
GI50 [32]: 1690 nM
TGI [32]: 3360 nM
GI50 [33]: 1640 nM
TGI [33]: 3050 nM
GI50 [34]: 1750 nM
TGI [34]: 3140 nM
GI50 [35]: 1640 nM
TGI [35]: 3050 nM
GI50 [36]: 1940 nM
TGI [36]: 3860 nM
GI50 [37]: 1630 nM
TGI [37]: 3110 nM
GI50 [38]: 1690 nM
TGI [38]: 3090 nM
GI50 [39]: 1740 nM
TGI [39]: 3220 nM
GI50 [40]: 1890 nM
TGI [40]: 4090 nM
GI50 [41]: 1700 nM
TGI [41]: 3160 nM
GI50 [42]: 1800 nM
TGI [42]: 3430 nM
GI50 [43]: 3020 nM
TGI [43]: 9410 nM
GI50 [44]: 2530 nM
TGI [44]: > 100000 nM
GI50 [45]: 1640 nM
TGI [45]: 3170 nM
GI50 [46]: 1600 nM
TGI [46]: 3110 nM
GI50 [47]: 1700 nM
TGI [47]: 3490 nM
GI50 [48]: 1720 nM
TGI [48]: 3270 nM
GI50 [49]: 1520 nM
TGI [49]: 2920 nM
